The target in one assay is T1, B1R of rats (Rattus norvegicus, UniProt P97583).
T1 construct: expressed in transfected cells; host or cells: CHO K1 cells
T1 sequence (P97583 1-337): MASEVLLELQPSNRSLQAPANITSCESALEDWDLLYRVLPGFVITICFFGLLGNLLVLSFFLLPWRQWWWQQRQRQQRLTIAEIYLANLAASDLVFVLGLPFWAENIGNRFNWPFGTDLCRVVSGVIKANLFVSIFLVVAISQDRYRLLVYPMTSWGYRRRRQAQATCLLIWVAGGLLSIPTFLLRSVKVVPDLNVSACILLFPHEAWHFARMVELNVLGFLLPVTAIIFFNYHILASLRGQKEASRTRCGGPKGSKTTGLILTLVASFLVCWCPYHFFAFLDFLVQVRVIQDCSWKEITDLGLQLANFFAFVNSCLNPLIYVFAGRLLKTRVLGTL
As to the kind of experiment: Functional investigation on the bradykinin 1 receptor (B1R), cell-based fluorescent calcium-mobilization assay (FLIPR/Novostar), rat. Particulars: 10 μM test substance; CHO K1 cells stably transfected with rat B1R gene; agonist Des-Arg9-bradykinin at EC80; % inhibition compared with maximum achievable inhibition; read-out: B1R antagonism, rat [10 μM] % inhibition. The procedure:
(§1) The agonistic or antagonistic action of substances can be quantified on the bradykinin 1 receptor (B1R) of the human and rat species with ectopically expressing cell lines (CHO K1 cells) and with the aid of a Ca^2+-sensitive dyestuff (Fluo-4) in a fluorescent imaging plate reader (FLIPR). The figure in % activation is based on the Ca^2+ signal after addition of Lys-Des-Arg^9-bradykinin (0.5 nM) or Des-Arg^9-bradykinin (100 nM). Antagonists lead to a suppression of the Ca^2+ inflow after addition of the agonist. % inhibition compared with the maximum achievable inhibition is stated.
(§2) The agonistic or antagonistic action of substances can be determined on the bradykinin 1 receptor (B1R) of humans and rats by means of a cell-based flourescent calcium-mobilization assay. According to this assay agonist-induced increase of intracellular free Ca^2+ is quantified by means of a Ca^2+-sensitive dye (Fluo-4 type, Molecular Probes Europe BV, Leiden, Netherlands), in a Fluorescent Imaging Plate Reader (FLIPR, Molecular Devices, Sunnyvale, USA) and/or the Novostar (BMG Labtech GmbH, Offenburg, Germany).
(§3) Chinese hamster ovary cells (CHO K1 cells), which are stably transfected with the human B1R gene (hB1R cells) or with the B1R gene of rats (rB1R cells), are used. For functional investigations these cells are seeded into black 96-well plates with a clear bottom (BD Biosciences, Heidelberg, Germany or Greiner, Frickenhausen, Germany) in a density of 20,000-35,000 cells/well. The cells are incubated overnight in a humidified atmosphere at 37° C. and 5% CO2 in culture medium (hB1R cells: Nutrient Mixture Ham's F12, Gibco Invitrogen GmbH, Karlsruhe, Germany or DMEM, Sigma-Aldrich, Taufkirchen, Germany; rB1R cells: D-MEM/F12, Gibco Invitrogen GmbH, Karlsruhe, Germany) with 10 vol. % FBS (foetal bovine serum, Gibco Invitrogen GmbH, Karlsruhe, Germany).
(§4) On the following day the cells are loaded with the Ca^2+-sensitive dye Fluo-4-AM (Molecular Probes Europe BV, Leiden, Netherlands):
(§5) Method A: The medium of the cells is removed and cell plates are incubated with loading solution, which contains 2.13 μM Fluo-4-AM, 2.5 mM probenecid (Sigma-Aldrich, Taufkirchen, Germany), and 10 mM HEPES (Sigma-Aldrich, Taufkirchen, Germany) in HBSS buffer (Hank's buffered saline solution, Gibco Invitrogen GmbH, Karlsruhe, Germany) for 60 minutes at 37° C. After the plates are washed twice with HBSS buffer, HBSS buffer supplemented 0.1% BSA (bovine serum albumin; Sigma-Aldrich, Taufkirchen, Germany), 5.6 mM glucose and 0.05% gelatine (Merck KGaA, Darmstadt, Germany) is added. Cell plates are incubated for at least 20 minutes in the dark at room temperature before they are used for the Ca^2+ measurement in the FLIPR or Novostar.
(§6) Method B: The plates are washed with buffer A (15 mM HEPES, 80 mM NaCl, 5 mM KCl, 1.2 mM CaCl2, 0.7 mM MgSO4, 2 mg/ml glucose, 2.5 mM probenecid) and subsequently loaded with buffer A containing 2.4 μM Fluo-4-AM and 0.025% pluronic F127 (Sigma-Aldrich, Taufkirchen, Germany) for 60 minutes at 37° C. Cell plates are washed twice with buffer A. Then, buffer A supplemented with 0.05% BSA and 0.05% gelatine is added and cell plates are incubated in the dark at room temperature for at least 20 minutes before measurement in the FLIPR or Novostar is started.
(§7) The Ca^2+-dependent fluorescence is measured both before and after the addition of substances (λex=488 nm, λem=540 nm). For quantification of the effect the highest fluorescence intensity (FC, fluorescence counts) over time is given. The FLIPR protocol consists of two substance additions, done within the instrument while continuously monitoring the Ca^2+-dependent fluorescence at 540 nm. When the Novostar was used, one addition had to be done outside the instrument. Test substances (10 μM) are initially pipetted onto the cells and the intracellular Ca^2+ rise is compared with the control (hB1R: Lys-Des-Arg9-bradykinin>=50 nM; rB1R: Des-Arg9-bradykinin>=1 μM). […]

The target of a further assay is T2, human B1R (Homo sapiens, UniProt P46663).
T2 construct: expressed in transfected cells; host or cells: CHO K1 cells
T2 sequence (P46663 1-353): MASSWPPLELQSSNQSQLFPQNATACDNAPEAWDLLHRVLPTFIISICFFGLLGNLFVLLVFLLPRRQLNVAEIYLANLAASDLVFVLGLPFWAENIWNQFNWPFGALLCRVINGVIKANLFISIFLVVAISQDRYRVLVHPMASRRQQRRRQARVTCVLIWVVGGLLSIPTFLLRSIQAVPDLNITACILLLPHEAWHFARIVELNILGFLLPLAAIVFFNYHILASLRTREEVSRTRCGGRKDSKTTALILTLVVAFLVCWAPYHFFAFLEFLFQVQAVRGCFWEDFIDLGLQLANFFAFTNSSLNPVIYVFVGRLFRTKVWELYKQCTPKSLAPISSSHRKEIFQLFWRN
Briefly: Functional investigation on the bradykinin 1 receptor (B1R), cell-based fluorescent calcium-mobilization assay (FLIPR/Novostar), human. The note with it: 10 μM test substance; CHO K1 cells stably transfected with human B1R gene; agonist Lys-Des-Arg9-bradykinin at EC80; % inhibition compared with maximum achievable inhibition; read-out: B1R antagonism, human [10 μM] % inhibition. Here is the method: as §1, §2, §3, §4, §5, §6, §7

Experimental findings from US8541573B2, “Substituted sulfonamide compounds” (Gruenenthal GmbH, priority 2008, dated 2013) are described below.

Consider `COc1cc(C)c(S(=O)(=O)N2CCCCC2COCC(=O)N2CCC(CNC(=O)c3cccnc3)(N3CCN(C)CC3)CC2)c(C)c1` (centres unmarked) [Example 34, N-((1-(2-((1-(4-methoxy-2,6-dimethylphenylsulfonyl)piperidin-2-yl)methoxy)acetyl)-4-(4-methylpiperazin-1-yl)piperidin-4-yl)methyl)nicotinamide], for which the inhibition at 10 µM on B1R of rats turned out to be 102%; at human B1R, 104%.
With `CC(=O)NCC1(N2CCN(C)CC2)CCN(C(=O)COCC2CCc3ccccc3N2S(=O)(=O)c2ccc(Cl)c(Cl)c2)CC1` (centres unmarked) [Example 7, N-((1-(2-((1-(3,4-dichlorophenylsulfonyl)-1,2,3,4-tetrahydroquinolin-2-yl)methoxy)acetyl)-4-(4-methylpiperazin-1-yl)piperidin-4-yl)methyl)acetamide], the inhibition at 10 µM at B1R of rats turned out to be 105%; on human B1R it was 102%.
In the same order, the values of `COc1cc(C)c(S(=O)(=O)N2c3ccccc3OCC2COCC(=O)N2CCC(CNC(=O)c3ccncc3)(N3CCN(C)CC3)CC2)c(C)c1` (centres unmarked) [Example 49, N-((1-(2-((4-(4-Methoxy-2,6-dimethylphenylsulfonyl)-3,4-dihydro-2H-benzo[b][1,4]oxazin-3-yl)methoxy)acetyl)-4-(4-methylpiperazin-1-yl)piperidin-4-yl)methyl)isonicotinamide] are 102% and 100%.
Consider `COc1cc(C)c(S(=O)(=O)N(CCOCC(=O)N2CCC(CNC(=O)c3ccncc3)(N3CCN(C4CC4)CC3)CC2)C2CC2)c(C)c1` [Example 44, N-((1-(2-(2-(N-Cyclopropyl-4-methoxy-2,6-dimethylphenylsulfonamido)ethoxy)acetyl)-4-(4-cyclopropylpiperazin-1-yl)piperidin-4-yl)methyl)isonicotinamide], for which the inhibition at 10 µM at B1R of rats was found to be 102%; at human B1R it was 100%.
The matching figures for `Cc1cccc(Cl)c1S(=O)(=O)N1c2ccccc2OCC1COCC(=O)N1CCC(CNC(=O)c2ccncc2)(N2CCN(C)CC2)CC1` (centres unmarked) [Example 50, N-((1-(2-((4-(2-Chloro-6-methylphenylsulfonyl)-3,4-dihydro-2H-benzo[b][1,4]oxazin-3-yl)methoxy)acetyl)-4-(4-methylpiperazin-1-yl)piperidin-4-yl)methyl)isonicotinamide]: 102% and 96%.
The matching figures for `COc1cc(C)c(S(=O)(=O)N2CCCCC2COCC(=O)N2CCC(CNC(=O)c3ccccn3)(N3CCN(C)CC3)CC2)c(C)c1` (centres unmarked) [Example 21, N-((1-(2-((1-(4-methoxy-2,6-dimethylphenylsulfonyl)piperidin-2-yl)methoxy)acetyl)-4-(4-methylpiperazin-1-yl)piperidin-4-yl)methyl)picolinamide]: 101% and 103%.
In the same order, the values of `CN1CCN(C2(CNC(=O)Cc3ccccc3)CCN(C(=O)CC(NS(=O)(=O)c3ccc4ccccc4c3)c3ccccc3)CC2)CC1` (centres unmarked) [Example 8, N-((4-(4-methylpiperazin-1-yl)-1-(3-(naphthalene-2-sulfonamido)-3-phenylpropanoyl)piperidin-4-yl)methyl)-2-phenylacetamide] are 29% and 75%.
On to `COc1cc(C)c(S(=O)(=O)N(CCOCC(=O)N2CCC(CN3Cc4ccccc4C3=O)(N3CCN(C4CC4)CC3)CC2)C2CC2)c(C)c1` [Example 42, N-Cyclopropyl-N-(2-(2-(4-(4-cyclopropylpiperazin-1-yl)-4-((1-oxoisoindolin-2-yl)methyl)piperidin-1-yl)-2-oxoethoxy)ethyl)-4-methoxy-2,6-dimethylbenzenesulfonamide], for which the results for the inhibition at 10 µM on B1R of rats and at human B1R were 96% and 97%, respectively.
The matching figures for `CN1CCN(C2(CNC(=O)c3cccnc3)CCN(C(=O)CC(NS(=O)(=O)c3ccc4ccccc4c3)c3ccccc3)CC2)CC1` (centres unmarked) [Example 38, N-((4-(4-methylpiperazin-1-yl)-1-(3-(naphthalene-2-sulfonamido)-3-phenylpropanoyl)piperidin-4-yl)methyl)nicotinamide]: 73% and 50%.
In the same order, the values of `CC(=O)NCC1(N2CCN(C)CC2)CCN(C(=O)CC(NS(=O)(=O)c2ccc3ccccc3c2)c2ccccc2)CC1` (centres unmarked) [Example 35, N-((4-(4-methylpiperazin-1-yl)-1-(3-(naphthalene-2-sulfonamido)-3-phenylpropanoyl)piperidin-4-yl)methyl)acetamide] are 102% and 89%.
As for `CN1CCN(C2(CNC(=O)Cc3ccccc3)CCN(C(=O)CC3CCCCN3S(=O)(=O)c3cccc(C(F)(F)F)c3)CC2)CC1` (centres unmarked) [Example 4, N-((4-(4-methylpiperazin-1-yl)-1-(2-(1-(3-(trifluoromethyl)phenylsulfonyl)piperidin-2-yl)acetyl)piperidin-4-yl)methyl)-2-phenylacetamide], the inhibition at 10 µM at B1R of rats is 59%; on human B1R, 67%.
In the same order, the values of `CC(=O)NCC1(N2CCN(c3ccncc3)CC2)CCN(C(=O)CCC2CCCCN2S(=O)(=O)c2cc(C)c(Cl)cc2C)CC1` (centres unmarked) [Example 11, N-((1-(3-(1-(4-chloro-2,5-dimethylphenylsulfonyl)piperidin-2-yl)propanoyl)-4-(4-(pyridin-4-yl)piperazin-1-yl)piperidin-4-yl)methyl)acetamide] are 75% and 102%.
The matching figures for `COc1cc(C)c(S(=O)(=O)N2CCCCC2COCCC(=O)N2CCC(CNC(=O)c3ccncc3)(N3CCN(C)CC3)CC2)c(C)c1` (centres unmarked) [Example 52, N-((1-(3-((1-(4-Methoxy-2,6-dimethylphenylsulfonyl)piperidin-2-yl)methoxy)propanoyl)-4-(4-methylpiperazin-1-yl)piperidin-4-yl)methyl)isonicotinamide]: 102% and 100%.

In general, inhibition refers to the drop in the measured response relative to a control, in per cent.
